# Assays:
# Format in all cases: cell-based, human
# MCF7 cells = assay: Proliferation assay (CFSE-labeled cells, flow cytometry); conditions: 72 h; E-64d 10 μM, pepstatin 20 μM, LHVS 10 nM, CLIK-148 1 μM
# Protocol: To assess the effect of cathepsin V inhibitors on cell proliferation, MCF7 cells were fluorescently labeled with carboxyfluorescein succinimidyl ester (CFSE; ImmunoChemistry Technologies, Bloomington, MN, USA) in PBS for 15 min at room temperature according to the manufacturer’s instructions. Cells were washed with PBS, resuspended in complete medium, seeded (at 4 × 10^4 cells/well) into 24-well plates, and allowed to adhere overnight. Cells were then treated with the following inhibitors: compound 7 (10 μM), E-64d (10 μM), CLIK-148 (1 μM), LHVS (10 nM), pepstatin (20 μM), their combinations, or DMSO (0.1 %) in 500 μL of medium for 72 h at 37 °C. To prepare cells for flow cytometry, cells were detached and transferred to round-bottomed polystyrene tubes and washed with PBS. Before measurement, 7-aminoactinomycin D (7-AAD; ImmunoChemistry Technologies, Bloomington, MN, USA) was added according to the manufacturer’s instructions to exclude dead cells. Therefore, the green fluorescence arising from CFSE was monitored only for viable cells. The measurement was performed using a FACSCalibur instrument (BD Biosciences, San Jose, CA, USA).
# [1] = test system: cystatin F in U-937 cells; assay: Western blot of cystatin F dimer-to-monomer ratio; conditions: U-937 cell lysates, 6 h treatment, 10 and 20 μM, vs control
# Protocol: Cells were treated with E-64d or compound 7 (both at 10 µM or 20 µM) for 6 h. After treatment, whole-cell lysates were prepared in RIPA buffer supplemented with cOmplete™ Protease Inhibitor Cocktail (Roche, Basel, Switzerland) and centrifuged at 16 000 × g for 20 min at 4 °C. Total protein concentration was determined using the DC assay (Biorad, Hercules, CA, USA). Proteins were separated by non-reducing SDS-PAGE and transferred to a nitrocellulose membrane using the TransBlot Turbo System (Biorad). After blocking, the membranes were incubated with primary antibodies overnight at 4 °C and with secondary antibodies for 1 h at room temperature. Bands were visualized using Clarity Max Western ECL substrate (Biorad), and protein loading was checked using Stain Free technology (Biorad). Images were acquired using the ChemiDoc ML Imaging System (Biorad), and quantification analysis was performed using Image Lab software (Biorad).
# The following primary antibodies were used: rabbit anti-cystatin F (1:375, HPA040442, Sigma), goat anti-cathepsin V (1:200, AF 1080, R&D, USA), and mouse anti-GAPDH (1:3000, 10494-I-AP, Proteintech, USA). […]
# [2] = test system: NK-92 effector cells on target K-562 cells; assay: Calcein AM release assay (cytotoxicity); conditions: effector cells treated 10 µM, 6 h
# Protocol: (§1) Effector cells (NK-92 or TALL-104; 1 × 10^6/ml) were treated with E-64d (10 µM) or compound 7 (10 µM) for 6 h. NK-92 cells were pre-treated with 1000 IU IL2/mL overnight prior to the addition of inhibitors. Effector cells were added to a 96-well U-bottom plate to achieve a selected effector-to-target ratio (E:T). Target K-562 cells were labelled with 15 µM Calcein-AM (Sigma) in serum-free RPMI 1640 medium for 30 min at 37 °C. Cells were then washed twice and resuspended in complete RPMI 1640 medium. Target cells (n = 5000) were added to the effectors. The plate was centrifuged at 200 × g for 1 min and incubated at 37 °C and 5 % CO2 for 4 h. After incubation, the plate was centrifuged at 700 × g for 5 min. The supernatant (50 µL) was transferred to a new microtiter plate to measure the fluorescence of the released Calcein-AM with a Tecan M1000 microtiter plate reader using 496 nm excitation and 516 nm emission filters. The percentage of cytotoxicity was calculated as follows: 100(test release-spontaneous release)/(total release-spontaneous release). Spontaneous release was measured in wells containing only target cells. For total release, 2 % Triton X-100 was added to the wells to achieve lysis of target cells. Lytic units (LU) were calculated using the inverse of the number of effector cells needed to lyse 30 % of the target cells multiplied by 100.
# [3] = test system: TALL-104 effector cells on target K-562 cells; assay: Calcein AM release assay (cytotoxicity); conditions: effector cells treated 10 µM, 6 h
# Protocol: as §1
# [4] = test system: U-937-derived macrophages; assay: Intracellular elastin-FITC degradation; conditions: 10 μM, 24 h, vs DMSO
# Protocol: To evaluate the effect of the inhibitors on the elastolytic activity of cathepsin V, we assessed the intracellular degradation of elastin-FITC, a soluble bovine neck ligament elastin that is heavily labeled with FITC such that the fluorescence of the conjugate is quenched. Upon proteolysis, fluorescence is recovered and can be detected. U-937 cells, differentiated into macrophage-like cells, were seeded (at 1 × 10^5 cells/well) into 24-well plates with 500 μL of medium supplemented with 50 nM PMA. Inhibitors or DMSO (0.1 %) and elastin-FITC (10 μg/mL; AnaSpec, Fermont, CA, USA) were added to the medium and incubated for 24 h at 37 °C. Cells were detached and washed with PBS, and propidium iodide (BD Bioscience) was added to exclude dead cells. Therefore, green fluorescence arising from elastin-FITC degradation was monitored only for viable cells. The measurement was performed using a FACSCalibur instrument (BD Biosciences).
smiles,measurement,setting,value
"CCOC(=O)[C@H]1O[C@@H]1C(=O)N[C@@H](CC(C)C)C(=O)NCCC(C)C [Compound E-64d, reference compound]",effect on cell proliferation (relative CFSE fluorescence intensity vs DMSO),MCF7 cells,no effects on cell proliferation
same,cystatin F dimer-to-monomer ratio,[1],increased
same,cytotoxicity of NK-92 cells (target cell killing),[2],decreased cytotoxic function
same,cytotoxicity of TALL-104 cells (target cell killing),[3],decreased cytotoxic function
same,decrease of elastin-FITC degradation,[4],18.4 ± 7.0%

# From PMC9459403, “New inhibitors of cathepsin V impair tumor cell proliferation and elastin degradation and increase immune cell cytotoxicity” (Computational and Structural Biotechnology Journal, 2022)
